The values that follow come from patent US6384074B1, “Cell growth activating composition containing compound having labdane structure” (Takasago International Corporation, priority 1998, dated 2002).

Assay [1] concerns B16 melanoma cells. The assay can be described thus: Melanin formation prevention test (melanin production and cell proliferation). In kind it is cell-based. Particulars: for Degree of cell proliferation: relative to ethanol control. On the procedure:
B16 melanoma cells were suspended (10,000 cells/ml) in DMEM (Dulbecco's modified eagle medium) containing 10% FBS (fetal bovine serum) and 8 ml of the suspension was added to a cell culture bottle with a 25 cm^2 bottom surface area, and cultured at 37° C. in the presence of 5% carbon dioxide for 3 days. After 3 days of culture, the old medium was exchanged with 8 ml of fresh medium. 40 micro-liters of a sample solution, in which compounds of the present invention had been dissolved in ethanol to give a final concentration shown in the table, were further added thereto. As the control, ethanol only was added. After the medium change, the cells were further cultured for 3 days under the same conditions. After culture was finished, the medium was removed, and the cells were recovered by treatment with trypsin (DIFCO) and suspended in 4 ml of phosphate buffered saline (PBS) and a predetermined amount ( 1/40) of this suspension was used to measure the number of cells in a Coultar counter (Sysmex Co.) to determine the degree of cell proliferation.
The degree of cell proliferation was determined according to the following equations:
Degree of cell proliferation (%)=(number of cells in sample)/(number of cells in control)×100
The remainder of the cell suspension was centrifuged and then washed with 5% trichloroacetic acid, then with ethanol/ethyl ether (3:1 by volume), and with ethyl ether and the cells were dried, and 2N—NaOH was added thereto to dissolve (melanin in) the cells under heating at 70° C. and measured for its optical density (OD) at 420 nm. Using a calibration curve of synthetic melanin, the amount of melanin/million cells was determined from the OD and the degree of inhibition of melanin production was determined according to the following equation:
Degree of inhibition of melanin (%)=(amount of melanin in control−amount of melanin in sample)/(amount of melanin in control)×100

In assay [2] the test system is UV Ray-induced Pigment Stains. The assay can be described thus: Effect of diminishing UV ray-induced pigment stains in guinea pigs. The class given is in vivo, brown guinea pigs. Particulars: 7% ethanol solution applied once per day on UVB-irradiated skin. The source says:
Hair was carefully removed from the back of 5 brown guinea pigs, and a shielding plate provided with four 2.5 cm×2.5 cm openings was attached to the portion from which hair had been removed, followed by irradiating it 3 times every second day with UVB rays at an intensity of 450 mj/cm^2. Immediately after the irradiation of UVB rays, a 70 micro-liters sample was applied onto the irradiated site once per day for 35 days, and the amount of pigment diminished by this treatment was examined on the days shown in Table 5. […]
For evaluation of the activity, each application site was measured by a calorimeter (CR200b, Minolta Co Ltd.). ΔLx is the difference between the L value after the sample application (value changing with time) and the L value of the portion before the sample application started, and then ΔΔL value was determined by subtracting ΔLo value (i.e. the value similarly determined for the portion to which ethanol was applied) from the ΔLx value. The ΔΔL value can be determined according to the equation: […]
Lo: L value of the test site (site to which the sample was applied) before sample application
Lx : L value of the test site (site to which the sample was applied) on Day x after sample application
L′o : L value of the control site (site to which ethanol was applied) before ethanol application
L′x : L value of the control site (site to which ethanol was applied) on Day x after ethanol application

Assay [3] concerns mushroom-derived tyrosinase. The assay can be described thus: Mushroom tyrosinase inhibition test. In kind it is biochemical. Particulars: 25 ppm, L-tyrosine substrate, 37° C. 30 minutes. On the procedure:
After reaction, the absorbance (OD) at a wavelength of 490 nm was measured and the degree of inhibition of tyrosinase reaction was determined according to the following equation. […] Sample: The buffer, the enzyme solution, the substrate solution and the sample solution Sample-free: The buffer, the enzyme solution and the substrate solution Blank: The buffer and the enzyme solution

Assay [4] relates to Human-derived normal skin fibroblasts (NB1RGB). The assay can be described thus: Test of cell activating activity (fibroblast proliferation). The class given is cell-based. As to conditions: 8.0 ppm, relative to ethanol control (100). On the procedure:
Human-derived normal skin fibroblasts (NB1RGB: Institute of Physical and Chemical Research) were suspended into DMEM containing 10% FBS to give a concentration of 20,000 cells/ml, and 5 ml each of this cellular suspension was introduced into each of 25 cm^2 bottles, cultured at 37° C. in the presence of 5% carbon dioxide for 24 hours. To each bottle, was added 10 micro-liter (0.2%) of the ethanol solution containing the compound to give the final concentration shown in Table 8. The cells were cultured for an additional 3 days. After 3 days the old medium was discarded and 5 ml fresh medium was added, and the sample was further added thereto. After this exchange of the medium, the cells were further cultured for another 3 days. Then cells were removed with trypsin and the number of cells in each bottle was counted with a Coultar counter. Simultaneously, as the control, only ethanol was added and the NB1RGB cells were cultured and the number of cells were counted in the same manner. The number of cells in each bottle to which the sample had been added was determined as a relative value to the number (as 100) of cells in the control after cultured, and the results are shown in Table 8.

In assay [5] the test system is Bacillus subtilis PCI 219 IFO 3134. The assay can be described thus: Anti-bacterial activity test, agar medium dilution method. In kind it is cell-based. As to conditions: Bs-1. On the procedure:
(§1) The aerobic microorganisms were examined in an agar medium dilution method and the anaerobic microorganisms were examined in a liquid medium dilution method under anaerobic culture conditions. Muller Hinton agar medium (DIFCO) was heated and dissolved and 10 ml of the medium was introduced into each test tube, sterilized and used. The sample was prepared by dissolving in ethanol and the resulting ethanol solution was diluted 2-fold serially with ethanol, and 100 micro-liters of sample solution were added to 10 ml of each dissolved agar medium, then stirred, introduced into a Petri dish of 9 cm in diameter, and solidified at room temperature. Each test microorganism in a well grown slant was inoculated via one loop of platinum into 10 ml Muller Hinton broth (DIFCO) and cultured with shaking at 27° C. for 24 hours and used as a microbial fluid. This fluid was diluted at 10^8 CFU (Colony forming unit)/ml, and 5 micro-liters of the diluted fluid were inoculated onto the agar and cultured at 37° C. overnight. Inoculation of the microorganism was conducted using microplanter MIT-P for 27 tubes test microorganisms (Sakuma Seisakusho K. K.).

Assay [6] relates to Corynebacterium minutissimum ATCC 23348. Described as above. The class given is cell-based. Particulars: Cm-1. On the procedure:
as §1

The test system of assay [7] is Corynebacterium xerosis JCM 1324. The assay is described as above. Particulars: Cx-2. In kind it is cell-based. On the procedure: as §1
The subject of assay [8] is Malassezia furfur IFO 0656. The assay is described as above. In kind it is cell-based. As to conditions: Mf-1. On the procedure:
as §1

Assay [9] concerns Staphylococcus aureus IFO 12732. The assay is described as above. The class given is cell-based. As to conditions: Sa-3. On the procedure:
as §1

For assay [10], the system named is Staphylococcus epidermidis JCM 2414. Described as above. The class given is cell-based. Particulars: Se-1. On the procedure: as §1
In assay [11] the test system is Staphylococcus epidermidis var. H-6. The description is as above. In kind it is cell-based. Particulars: Se-2. On the procedure: as §1
In assay [12] the test system is Propinibadterium Acnes ATCC 12818. The assay can be described thus: Anti-bacterial activity test, liquid medium dilution method (anaerobic). The class given is cell-based. Particulars: Pa-1, anaerobic. On the procedure: (§2) The aerobic microorganisms were examined in an agar medium dilution method and the anaerobic microorganisms were examined in a liquid medium dilution method under anaerobic culture conditions. 10 ml GAM broth (Nissui) was introduced into each test tube equipped with a cap and sterilized. 100 micro-liter of the sample solution prepared for agar medium dilution method was added to each test tube and lightly stirred, and 100 micro-liter test microbial solution (10^7 CFU/ml) was added thereto, then capped and incubated at 37° C. The test microbial solution was prepared by introducing 100 micro-liter stock microbial solution into 10 ml GAM broth in a test tube then capping the tube and fermenting it at 37° C. overnight.

In assay [13] the test system is streptococcus mutans JCM 5157. Described as above. The class given is cell-based. As to conditions: Su-1, anaerobic. On the procedure:
as §2

Assay [14] relates to B16 melanoma cells. The assay can be described thus: Combination test with existing tyrosinase inhibitors (method of Test Example 1). In kind it is cell-based. Particulars: 0.4 ppm, alone; Table 2, combined use with arbutin. On the procedure: B16 melanoma cells were suspended (10,000 cells/ml) in DMEM (Dulbecco's modified eagle medium) containing 10% FBS (fetal bovine serum) and 8 ml of the suspension was added to a cell culture bottle with a 25 cm^2 bottom surface area, and cultured at 37° C. in the presence of 5% carbon dioxide for 3 days. After 3 days of culture, the old medium was exchanged with 8 ml of fresh medium. 40 micro-liters of a sample solution, in which compounds of the present invention had been dissolved in ethanol to give a final concentration shown in the table, were further added thereto. As the control, ethanol only was added. After the medium change, the cells were further cultured for 3 days under the same conditions. […] Degree of cell proliferation (%)=(number of cells in sample)/(number of cells in control)×100 […] Using a calibration curve of synthetic melanin, the amount of melanin/million cells was determined from the OD and the degree of inhibition of melanin production was determined according to the following equation: Degree of inhibition of melanin (%)=(amount of melanin in control−amount of melanin in sample)/(amount of melanin in control)×100 […]

Assay [15] addresses T1, tyrosinase in B16 melanoma cells (Mus musculus, UniProt P11344).
T1 construct: the resulting supernatant was used as a crude enzyme solution; endogenous in cells; host or cells: B16 melanoma cells (Triton X100 lysate, sonicated, 11,000 G supernatant)
T1 sequence (P11344 19-533): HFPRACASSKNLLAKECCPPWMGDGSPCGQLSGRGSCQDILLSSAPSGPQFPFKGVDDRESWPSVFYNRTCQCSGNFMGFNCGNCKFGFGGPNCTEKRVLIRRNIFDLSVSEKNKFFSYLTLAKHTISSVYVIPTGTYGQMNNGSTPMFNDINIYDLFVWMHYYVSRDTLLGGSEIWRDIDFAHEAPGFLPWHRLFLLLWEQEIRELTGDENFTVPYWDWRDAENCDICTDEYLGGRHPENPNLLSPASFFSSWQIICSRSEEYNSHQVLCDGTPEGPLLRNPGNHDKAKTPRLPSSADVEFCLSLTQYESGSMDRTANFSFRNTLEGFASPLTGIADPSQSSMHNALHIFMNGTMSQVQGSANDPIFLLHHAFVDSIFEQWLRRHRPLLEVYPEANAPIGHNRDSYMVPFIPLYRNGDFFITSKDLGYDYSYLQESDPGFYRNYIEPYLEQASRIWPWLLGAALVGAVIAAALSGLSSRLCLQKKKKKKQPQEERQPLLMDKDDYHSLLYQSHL
The assay can be described thus: Test of tyrosinase inhibition in B16 melanoma cells (crude enzyme solution). Particulars: 25 ppm, L-DOPA substrate, 37° C. 3 hours. In kind it is biochemical. On the procedure:
B16 melanoma cells were cultured for 3 days in DMEM containing 10% FBS at 37° C. in the presence of 5% carbon dioxide. The cells proliferated after culture were recovered by treatment with trypsin, then suspended in PBS containing 0.1% Triton X100 at a density of ten million cells/ml and disrupted by sonication. The product obtained was centrifuged at 11,000 G for 20 minutes, and the resulting supernatant was used as a crude enzyme solution. Added thereto was 0.2 ml of crude enzyme solution. The mixture was preliminarily kept at 37° C. for 5 minutes, and 0.2 ml L-DOPA solution (0.5 mg/ml) was added as the substrate, and the mixture was kept at 37° C. for 3 hours.

Consider `O=c1cc(CO)occ1O` [Kojic acid, reference compound], for which the “Degree of cell proliferation” value in the assay with B16 melanoma cells [1] (200.00 ppm) was 94%. Also, the inhibition at 200 ppm with B16 melanoma cells [1] (Mus musculus, 72 h, 200.00 ppm, 3 days, read-out: Degree of melanin inhibition) came out at 34%. In addition, the ΔΔL in assay [2] (Day 14) is given as 1.32; in assay [2] (Day 28) it was 1.52; in [2] (Day 35) it was 1.40. In assay [3], the “Degree of inhibition of mushroom tyrosinase” value stood at 67%.
In the case of labden-15-oic acid [Compound 10], the “Degree of melanin inhibition” value in the assay on B16 melanoma cells [1] (6.3 ppm, 3 days) was determined as 83%. The “Degree of cell proliferation” value with B16 melanoma cells [1] (6.3 ppm) was found to be 97%. Besides, the “Degree of cell proliferation of fibroblasts” value in assay [4] is given as 126%. Also, the MIC in [5], in assay [6], in [7], in [8], in assay [9] and in assay [10] was 6.3 ppm each time. In addition, the values for the MIC in [11], in assay [12] and in [13] were 6.3 ppm, 12.5 ppm and 6.3 ppm, respectively.
`CC1=C(CCC(C)CC(=O)O)C2(C)CCCC(C)(C)C2CC1` (stereo not drawn) [Compound 1, labd-8-en-15-oic acid]: the “Degree of melanin inhibition” value is listed as 80% with B16 melanoma cells [1] (3.1 ppm, 3 days) and 22% with B16 melanoma cells [14]. Besides, the “Degree of cell proliferation” value with B16 melanoma cells [1] (3.1 ppm) turned out to be 109%; in the assay on B16 melanoma cells [14], 115%. Besides, the “Degree of inhibition of mushroom tyrosinase” value in [3] is 0%. The “Degree of inhibition of tyrosinase in B16 melanoma cells” value in assay [15] is recorded as 0%. Besides, the MIC in assay [5] is recorded as 6.3 ppm; in [6], 6.3 ppm; in [7], 12.5 ppm; in assay [8], 6.3 ppm; in assay [9] it was 12.5 ppm; in assay [10], 6.3 ppm. Moreover, the MIC worked out at 6.3 ppm in assay [11], 12.5 ppm in assay [12] and 6.3 ppm in assay [13].

For orientation: inhibition means how much of the control response was suppressed.
